Experimental data reported in patent US20060069132A1, “Azolecarboxamide herbicides” (priority 2004, published 2006).

Tests used:
soybean = assay: Test C pre-/postemergence herbicide test; type: in vivo, Glycine max
How it was run: (§1)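 Seeds were planted and sprayed preemergence with test chemicals in a non-phytotoxic solvent mixture containing surfactant; postemergence treatments went onto plants 2 to 18 cm tall (1- to 4-leaf stage). After 12 to 14 days in a greenhouse, injury was rated visually against untreated controls on a 0–100 scale.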

pigweed = assay: Test C pre-/postemergence herbicide test; type: in vivo, Amaranthus retroflexus
How it was run: as §1

corn [1] = assay: Test C pre-/postemergence herbicide test; type: in vivo, Zea mays
How it was run: as §1

yellow nutsedge = assay: Test C pre-/postemergence herbicide test; type: in vivo, Cyperus esculentus
How it was run: as §1

johnsongrass = assay: Test C pre-/postemergence herbicide test; type: in vivo, Sorghum halepense
How it was run: as §1

velvetleaf = assay: Test C pre-/postemergence herbicide test; type: in vivo, Abutilon theophrasti
How it was run: as §1

corn [2] = assay: Test B pre-/postemergence herbicide test; type: in vivo, Zea mays; conditions: for Corn plant response rating (0 to 100 scale) / Plant response rating, Corn: 0 = no effect, 100 = complete control; for Corn plant response rating: postemergence
How it was run: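 Plants compared with untreated controls 13–15 days post-treatment and given a visual 0–100 injury score. Applications: preemergence to seeds; postemergence at 1- to 4-leaf (2–18 cm); paddy species flooded, 2-leaf stage. Vehicle non-phytotoxic, surfactant included.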

large crabgrass = assay: Test C pre-/postemergence herbicide test; type: in vivo, Digitaria sanguinalis
How it was run: as §1

wild oat = assay: Test B postemergence herbicide test; type: in vivo, Avena fatua; conditions: postemergence
How it was run: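 Each value is a visual 0–100 response rating taken against controls 13 to 15 days after treatment in the greenhouse. Plants received formulated chemical postemergence at the 1- to 4-leaf stage or, in flooded paddy, at the 2-leaf stage.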

Surinam grass = assay: Test C pre-/postemergence herbicide test; type: in vivo, Urochloa decumbens
How it was run: as §1

[3] = 62 g ai/ha, preemergence, scale 0 to 100
[4] = 250 g ai/ha, scale 0-100, preemergence
[5] = 500 g ai/ha, scale 0 to 100 (0 no effect, 100 complete control), visual, 12 to 14 days, preemergence
[6] = 125 g ai/ha, scale 0 (no effect) to 100 (complete control), visual, 12 to 14 days, preemergence
[7] = 125 g ai/ha, visual rating, scale 0 (no effect) to 100 (complete control)
[8] = 500 g ai/ha, visual rating, preemergence
[9] = 500 g ai/ha, scale 0 to 100, 0 is no effect, 100 is complete control
[10] = Postemergence, 500 g ai/ha, scale 0 to 100
[11] = Postemergence, 250 g ai/ha, scale 0 to 100, 0 no effect, 100 complete control
[12] = postemergence, 125 g ai/ha, scale 0 to 100
[13] = postemergence, 62 g ai/ha, scale 0 to 100

Compound: CCn1nc(C(C)(C)C)cc1C(=O)Nc1cncc(C(=O)N(C)C)n1 [Compound 287]
- Plant response rating, Soybean (soybean; [3]): 0
- Plant response rating, Soybean (soybean; [4]): 85
- Plant response rating, Soybean (soybean; [5]): 95
- Plant response rating, Pigweed (pigweed; [3]): 100
- Plant response rating, Pigweed (pigweed; [6]): 100
- Plant response rating, Pigweed (pigweed; [4]): 100
- Plant response rating, Pigweed (pigweed; [5]): 100
- Plant response rating, Corn (corn [1]; [4]): 50
- Plant response rating, Nutsedge, Yellow (yellow nutsedge; [3]): 0
- Plant response rating, Nutsedge, Yellow (yellow nutsedge; [6]): 15
- Plant response rating, Nutsedge, Yellow (yellow nutsedge; [4]): 60
- Plant response rating, Nutsedge, Yellow (yellow nutsedge; [5]): 85
- Plant response rating, Johnsongrass (johnsongrass; [3]): 55
- Plant response rating, Johnsongrass (johnsongrass; [6]): 85
- Plant response rating, Johnsongrass (johnsongrass; [4]): 95
- Plant response rating, Johnsongrass (johnsongrass; [5]): 95
- Plant response rating, Velvetleaf (velvetleaf; [3]): 40
- Plant response rating, Velvetleaf (velvetleaf; [4]): 100
- Plant response rating, Velvetleaf (velvetleaf; [5]): 100
- Corn plant response rating (0 to 100 scale) (corn [2]; 125 g ai/ha, preemergence): 0
- Corn plant response rating (corn [2]; [7]): 0
- Plant response rating, Corn (corn [2]; [8]): 30
- Corn plant response rating (corn [2]; [9]): 70
- Plant response rating, Crabgrass, Large (large crabgrass; [3]): 65
- Plant response rating, Crabgrass, Large (large crabgrass; [6]): 95
- Plant response rating, Crabgrass, Large (large crabgrass; [4]): 95
- Plant response rating, Crabgrass, Large (large crabgrass; [5]): 100
- Oat, Wild plant response rating (wild oat; [7]): 20
- Oat, Wild plant response rating (wild oat; [9]): 40
- Plant response rating, Surinam Grass (Surinam grass; [4]): 65
- Plant response rating, Surinam Grass (Surinam grass; [5]): 95

Compound: CCn1nc(C2(C)CC2)cc1C(=O)Nc1cccc(C(=O)N2CC=CC2)c1 [Compound 304]
- Plant response rating, Soybean (soybean; [3]): 0
- Plant response rating, Soybean (soybean; [4]): 20
- Plant response rating, Soybean (soybean; [5]): 20
- Plant response rating, Pigweed (pigweed; [3]): 100
- Plant response rating, Pigweed (pigweed; [6]): 100
- Plant response rating, Pigweed (pigweed; [4]): 100
- Plant response rating, Pigweed (pigweed; [5]): 100
- Plant response rating, Corn (corn [1]; [3]): 0
- Plant response rating, Corn (corn [1]; [6]): 0
- Plant response rating, Corn (corn [1]; [4]): 15
- Plant response rating, Corn (corn [1]; [5]): 30
- Plant response rating, Nutsedge, Yellow (yellow nutsedge; [3]): 0
- Plant response rating, Nutsedge, Yellow (yellow nutsedge; [6]): 0
- Plant response rating, Nutsedge, Yellow (yellow nutsedge; [4]): 0
- Plant response rating, Nutsedge, Yellow (yellow nutsedge; [5]): 5
- Plant response rating, Johnsongrass (johnsongrass; [3]): 0
- Plant response rating, Johnsongrass (johnsongrass; [6]): 60
- Plant response rating, Johnsongrass (johnsongrass; [4]): 70
- Plant response rating, Johnsongrass (johnsongrass; [5]): 80
- Plant response rating, Velvetleaf (velvetleaf; [3]): 0
- Plant response rating, Velvetleaf (velvetleaf; [5]): 60
- Corn plant response rating (0 to 100 scale) (corn [2]; 125 g ai/ha, preemergence): 0
- Corn plant response rating (corn [2]; [7]): 40
- Corn plant response rating (corn [2]; [9]): 80
- Plant response rating, Crabgrass, Large (large crabgrass; [3]): 35
- Plant response rating, Crabgrass, Large (large crabgrass; [6]): 100
- Plant response rating, Crabgrass, Large (large crabgrass; [4]): 100
- Plant response rating, Crabgrass, Large (large crabgrass; [5]): 100
- Oat, Wild plant response rating (wild oat; [7]): 30
- Oat, Wild plant response rating (wild oat; [9]): 40
- Plant response rating, Surinam Grass (Surinam grass; [3]): 0
- Plant response rating, Surinam Grass (Surinam grass; [4]): 40
- Plant response rating, Surinam Grass (Surinam grass; [5]): 85

Compound: CCn1nc(C(C)(C)C)cc1C(=O)Nc1cccc(OC(F)(F)C(F)F)c1 [Compound 333]
- Plant response rating, Soybean (soybean; [3]): 0
- Plant response rating, Soybean (soybean; [4]): 0
- Plant response rating, Soybean (soybean; [5]): 0
- Soybean plant response rating (soybean; [10]): 45
- Plant response rating, Soybean (soybean; [11]): 40
- Plant response rating, Soybean (soybean; [12]): 30
- Plant response rating, Soybean (soybean; [13]): 30
- Plant response rating, Pigweed (pigweed; [3]): 100
- Plant response rating, Pigweed (pigweed; [6]): 100
- Plant response rating, Pigweed (pigweed; [4]): 100
- Plant response rating, Pigweed (pigweed; [5]): 100
- Pigweed plant response rating (pigweed; [10]): 100
- Plant response rating, Pigweed (pigweed; [11]): 100
- Plant response rating, Pigweed (pigweed; [12]): 100
- Plant response rating, Pigweed (pigweed; [13]): 65
- Plant response rating, Corn (corn [1]; [3]): 0
- Plant response rating, Corn (corn [1]; [6]): 0
- Plant response rating, Corn (corn [1]; [4]): 0
- Plant response rating, Corn (corn [1]; [5]): 0
- Corn plant response rating (corn [1]; [10]): 5
- Plant response rating, Corn (corn [1]; [11]): 5
- Plant response rating, Corn (corn [1]; [12]): 5
- Plant response rating, Corn (corn [1]; [13]): 5
- Plant response rating, Nutsedge, Yellow (yellow nutsedge; [3]): 0
- Plant response rating, Nutsedge, Yellow (yellow nutsedge; [6]): 0
- Plant response rating, Nutsedge, Yellow (yellow nutsedge; [4]): 0
- Plant response rating, Nutsedge, Yellow (yellow nutsedge; [5]): 0
- Nutsedge, Yellow plant response rating (yellow nutsedge; [10]): 0
- Plant response rating, Nutsedge, Yellow (yellow nutsedge; [11]): 0
- Plant response rating, Nutsedge, Yellow (yellow nutsedge; [12]): 0
- Plant response rating, Nutsedge, Yellow (yellow nutsedge; [13]): 0
- Plant response rating, Johnsongrass (johnsongrass; [3]): 0
- Plant response rating, Johnsongrass (johnsongrass; [6]): 0
- Plant response rating, Johnsongrass (johnsongrass; [4]): 5
- Plant response rating, Johnsongrass (johnsongrass; [5]): 5
- Johnsongrass plant response rating (johnsongrass; [10]): 0
- Plant response rating, Johnsongrass (johnsongrass; [11]): 0
- Plant response rating, Johnsongrass (johnsongrass; [12]): 0
- Plant response rating, Johnsongrass (johnsongrass; [13]): 0
- Plant response rating, Velvetleaf (velvetleaf; [3]): 0
- Plant response rating, Velvetleaf (velvetleaf; [4]): 50
- Plant response rating, Velvetleaf (velvetleaf; [5]): 55
- Velvetleaf plant response rating (velvetleaf; [10]): 80
- Plant response rating, Velvetleaf (velvetleaf; [11]): 50
- Plant response rating, Velvetleaf (velvetleaf; [12]): 50
- Plant response rating (0 to 100 scale), Corn (corn [2]; 125 g ai/ha, 0 is no effect, 100 is complete control, preemergence): 0
- Corn plant response rating (corn [2]; [7]): 10
- Plant response rating, Corn (corn [2]; [8]): 0
- Corn plant response rating (corn [2]; [9]): 10
- Plant response rating, Crabgrass, Large (large crabgrass; [3]): 20
- Plant response rating, Crabgrass, Large (large crabgrass; [6]): 70
- Plant response rating, Crabgrass, Large (large crabgrass; [4]): 100
- Plant response rating, Crabgrass, Large (large crabgrass; [5]): 100
- Crabgrass, Large plant response rating (large crabgrass; [10]): 10
- Plant response rating, Crabgrass, Large (large crabgrass; [11]): 5
- Plant response rating, Crabgrass, Large (large crabgrass; [12]): 5
- Plant response rating, Crabgrass, Large (large crabgrass; [13]): 0
- Oat, Wild plant response rating (wild oat; [7]): 40
- Oat, Wild plant response rating (wild oat; [9]): 60
- Plant response rating, Surinam Grass (Surinam grass; [4]): 5
- Plant response rating, Surinam Grass (Surinam grass; [5]): 20
- Surinam Grass plant response rating (Surinam grass; [10]): 10
- Plant response rating, Surinam Grass (Surinam grass; [11]): 5
- Plant response rating, Surinam Grass (Surinam grass; [12]): 5
- Plant response rating, Surinam Grass (Surinam grass; [13]): 5
